# Results taken from US7973219B2, “Method for producing transgenic plants resistant to weed control compounds which disrupt the porphyrin pathways of plants” (Sumitomo Chemical Company, Limited, priority 1998, dated 2011).
# Assays:
# [1] = tested on: tobacco introduced with the gene encoding the variant soybean PPO; experiment: Leaf piece chlorophyll test, tobacco with gene encoding variant soybean PPO; format: in vivo; settings: Table 8; for Resistant level to test compound: same manner as Example 6 (0.3 ppm), treated vs untreated leaf pieces; for Total chlorophyll content treated-leaf: same manner as Example 6 (0.3 ppm, 7 days in light)
# From the text: The tobacco leaves into which bchH gene was introduced and control recombinant tobacco leaves obtained in Example 5 were collected and each leaf was divided into the right and left equivalent pieces along the main vein, respectively. To one piece was applied an aqueous solution containing 0.3 ppm PPO inhibitory-type herbicidal compound of Structure 8, while, to the other piece was not applied the compound. These leaf pieces were placed on MS medium containing 0.8% agar and allowed to stand at room temperature for 7 days in light place. Then, each leaf piece was ground with pestle and mortar in 5 ml of 80% aqueous acetone solution to extract chlorophyll. The extract liquid was diluted with 80% aqueous acetone solution and the absorbance was measured at 750 nm, 663 nm and 645 nm to calculate total chlorophyll content according to the method described by Macknney G., J. Biol. Chem. (1941) 140, p 315. The results obtained from 4 clones of tobacco into which bchH gene was introduced (BCH1 to 4) and control recombinant tobacco is shown in Table 4. In the table, the resistant level to the herbicidal compound was represented by percentages of the total chlorophyll content of leaf pieces treated with herbicidal compound to that of untreated leaf pieces.
# Leaf pieces of tobacco cultured sterilely were infected with the Agrobacterium strain and, according to the same manner as in Example 5, tobacco into which the gene encoding the variant soybean PPO was introduced was obtained.
# The level of resistance to PPO inhibitory type herbicidal compound represented by Structure 8 was confirmed quantitatively by testing tobacco into which the gene encoding the variant soybean PPO prepared in Example 13 was introduced according to the same manner as in Example 6. The results obtained from 4 clones (GMP 1-4) of tobacco introduced with the gene encoding the variant soybean PPO and control recombinant tobacco are shown in Table 8. In the table, the resistant level to herbicidal compound is represented by percentage of the total chlorophyll content of leaf pieces treated with the herbicidal compound to that of untreated leaf pieces.
# [2] = tested on: E. coli BT3/pACYCSP+pRASSL4 strain; experiment: Growth of E. coli BT3/pACYCSP+pRASSL4 with herbicidal compound; format: cell-based, Escherichia coli; settings: 1 ppm, 18 hours culture, Table 16
# From the text: According to the description of Gibson, L. C. D. et al., Proc. Natl. Acad. Sci. USA, 92; p 1941 (1995), the DNA fragment containing bchH gene prepared in Example 1 was digested with the restriction enzymes NdeI and BglII. The resultant DNA fragment was inserted between NdeI restriction site and BamHI restriction site of expression vector pET11a (manufactured by Stratagene) to obtain plasmid pETBCH (FIG. 1). This plasmid pETBCH was introduced into E. coli BL21(DE3) strain competent cells (manufactured by Stratagene) according to the manual attached to the competent cells to obtain E. coli BL21(DE3)/pETBCH strain. […] When the absorbance at 600 nm of the liquid culture medium became about 0.6, isopropyl β-D-thiogalactopyranoside (IPTG) was added to the liquid culture medium so that the final concentration was 0.4 mM, and the culture was continued for about additional 20 hours. […]
# These E. coli strains were inoculated into YPT medium containing 1 ppm of the PPO inhibitory-type herbicidal compound represented by Structure 8, 100 μg/ml ampicillin, 15 μg/ml chloramphenicol, 10 μg/ml kanamycin, 10 μg/ml hemin and 50 μg/ml aminolevulinic acid, cultured under dark conditions or light conditions according to the same manner as in Example 2. Then, 18 hours after initiation of culture, the absorbance of the liquid culture medium was measured at 600 nm. […]
structure (smiles),measurement,setting,value
C#CCOc1cc(N2C(=O)C3=C(CCCC3)C2=O)c(F)cc1Cl [Structure 8],Resistant level to test compound,[1]; clone GMP-1,135%
same,Total chlorophyll content treated-leaf,[1]; clone GMP-1,2.55 mg/g-fresh weight
same,Resistant level to test compound,[1]; clone GMP-2,108%
same,Total chlorophyll content treated-leaf,[1]; clone GMP-2,0.96 mg/g-fresh weight
same,Resistant level to test compound,[1]; clone GMP-3,99.3%
same,Total chlorophyll content treated-leaf,[1]; clone GMP-3,1.49 mg/g-fresh weight
same,Resistant level to test compound,[1]; clone GMP-4,80.4%
same,Total chlorophyll content treated-leaf,[1]; clone GMP-4,2.34 mg/g-fresh weight
same,Relative absorbance,[2]; in the dark,0.98
same,Relative absorbance,[2]; in the light,1.1
